Among the data in patent publication US8003658B2, “Quinazoline derivatives for inhibiting cancer cell growth and method for the preparation thereof” (Hanmi Holdings Co., Ltd., priority 2004, dated 2011) are IC50 values, retold here.

The subject of one test is SK-Br3 (ATCC: HTB-30). Put plainly: Test of cancer cell growth inhibition (SRB), SK-Br3. To be noted: read-out: IC50 SK-Br-3.
The subject of another test is A431 (ATCC: CRL-1555). The test is described as follows: Test of cancer cell growth inhibition (SRB), A431. The following applies: read-out: IC50 A431.
The mark [1] stands for this setting: Erb-B2 overexpressed SK-Br3, 72 hours, SRB.
Setting [2] is: EGFR overexpressed A431, 72 hours, SRB.

pIC50: −log10 of the molar value. Read-outs that look alike come from different tables or passages of the source.

In general, pIC50 refers to the IC50 on a negative log10 scale, so that one unit is a factor of ten. As for `C=CC(=O)NCC(F)C(=O)Nc1cc2c(Nc3ccc(OCc4ccccn4)c(Cl)c3)ncnc2cc1OC` (stereo not shown) [Example 206, N-(2-{4-[3-chloro-4-(pyridin-2-ylmethoxy)-phenylamino]-7-methoxy-quinazolin-6-ylcarbamoyl}-2-fluoro-ethyl)-acrylamide], the pIC50 in the test on SK-Br3 (ATCC: HTB-30) (Homo sapiens, SK-BR-3, 72 h) was 8.00; with A431 (ATCC: CRL-1555) (Homo sapiens, A-431, 72 h), 7.77.
Taken in the same sequence, the figures for `CC(C)(C)OC(=O)NCC(=O)Nc1ccc2ncnc(Nc3ccc(OCc4cccc(F)c4)c(Cl)c3)c2c1` [Example 1-5, ({4-[3-chloro-4-(3-fluoro-benzyloxy)-phenylamino]-quinazolin-6-ylcarbamoyl}-methyl)-carbamic acid t-butylester] were 6.44 and 6.39.
`COc1cc2ncnc(Nc3ccc(OCc4ccccn4)c(Cl)c3)c2cc1NC(=O)[C@@H]1CCCN1C(=O)C=CCN(C)C` [Example 175, (2S)-1-(4-dimethylamino-buten-2-oyl)-pyrrolidine-2-carboxylic acid {4-[3-chloro-4-(pyridin-2-ylmethoxy)-phenylamino]-7-methoxy-quinazolin-6-yl}-amide]: the pIC50 with SK-Br3 (ATCC: HTB-30) (setting [1]) was 7.59; with A431 (ATCC: CRL-1555) (setting [2]), 7.32.
Turning to `CN(C)CC=CC(=O)NCCC(=O)Nc1ccc2ncnc(Nc3ccc(OCc4cccc(F)c4)c(Cl)c3)c2c1` [Example 56, 4-dimethylamino-but-2-enonylic acid (2-{4-[3-chloro-4-(3-fluoro-benzyloxy)-phenylamino]-quinazolin-6-ylcarbamoyl}-ethyl)-amide], the pIC50 is 7.29 in the test with SK-Br3 (ATCC: HTB-30) (setting [1]) and 6.21 in the test with A431 (ATCC: CRL-1555) (setting [2]).
On to `C=CC(=O)NCCC(=O)Nc1ccc2ncnc(Nc3ccc(OCc4cccc(C)n4)c(Cl)c3)c2c1` [Example 144, N-(2-{4-[3-chloro-4-(6-methyl-pyridin-2-ylmethoxy)-phenylamino]-quinazolin-6-ylcarbamoyl}-ethyl)-acrylamide], for which the pIC50 with SK-Br3 (ATCC: HTB-30) (Homo sapiens, SK-BR-3, 72 h) is 8.10; in the test with A431 (ATCC: CRL-1555) (Homo sapiens, A-431, 72 h) it was 7.14.
Consider `C=CC(=O)N1C[C@H](OC)C[C@H]1C(=O)Nc1ccc2ncnc(Nc3ccc(OCc4ccccn4)c(Cl)c3)c2c1` [Example 161, (2S,4R)-1-acryloyl-4-methoxy-pyrrolidine-2-carboxylic acid {4-[3-chloro-4-(pyridin-2-ylmethoxy)-phenylamino]-quinazolin-6-yl}-amide], for which the pIC50 with SK-Br3 (ATCC: HTB-30) (Homo sapiens, SK-BR-3, 72 h) is 7.72; with A431 (ATCC: CRL-1555) (Homo sapiens, A-431, 72 h), 6.17.
Regarding “(2S)-2-acryloylamino-N-{4-[3-chloro-4-(3-fluoro-benzyloxy)-phenylamino]-7-methoxy-quinazolin-6-yl}-4-methanesulfinyl-butyramide [Example 223]”, the pIC50 with SK-Br3 (ATCC: HTB-30) (setting [1]) was 7.49; in the test with A431 (ATCC: CRL-1555) (setting [2]), 7.27.
For `Cc1oncc1C(=O)NCCC(=O)Nc1ccc2ncnc(Nc3ccc(OCc4cccc(F)c4)c(Cl)c3)c2c1` [Example 136], the pIC50 with SK-Br3 (ATCC: HTB-30) (setting [1]) was 5.77; in the test on A431 (ATCC: CRL-1555) (setting [2]), 6.08.
Consider `C=CC(=O)N1CC(C(=O)Nc2cc3c(Nc4ccc(OCc5ccccn5)c(Cl)c4)ncnc3cc2OC)C1` [Example 200, 1-acryloyl-azetidine-3-carboxylic acid {4-[3-chloro-4-(pyridin-2-ylmethoxy)-phenylamino]-7-methoxy-quinazolin-6-yl}-amide], for which the pIC50 in the test with SK-Br3 (ATCC: HTB-30) (Homo sapiens, SK-BR-3, 72 h) is 8.10; in the test with A431 (ATCC: CRL-1555) (Homo sapiens, A-431, 72 h), 6.48.
The like results for `C=CC(=O)N1CCC1C(=O)Nc1cc2c(Nc3ccc(OCc4ccccn4)c(Cl)c3)ncnc2cc1OC` (stereo not shown) [Example 182, 1-acryloyl-azetidine-2-carboxylic acid {4-[3-chloro-4-(pyridin-2-ylmethoxy)-phenylamino]-7-methoxy-quinazolin-6-yl}-amide] were, in that order, 8.05 and 6.89.
For `C=CC(=O)N1CCC[C@H]1C(=O)Nc1cc2c(Nc3ccc(OCc4ccccn4)c(C)c3)ncnc2cc1OCC` [Example 186, (2S)-1-acryloyl-pyrrolidine-2-carboxylic acid {4-[3-methyl-4-(pyridin-2-ylmethoxy)-phenylamino]-7-ethoxy-quinazolin-6-yl}-amide], the pIC50 was 8.10 with SK-Br3 (ATCC: HTB-30) (Homo sapiens, SK-BR-3, 72 h) and 7.59 in the test with A431 (ATCC: CRL-1555) (Homo sapiens, A-431, 72 h).
Taken in the same sequence, the figures for `O=C(CCNC(=O)NCc1ccco1)Nc1ccc2ncnc(Nc3ccc(OCc4cccc(F)c4)c(Cl)c3)c2c1` [Example 125, N-{4-[3-chloro-4-(3-fluoro-benzyloxy)-phenylamino]-quinazolin-6-yl}-3-(3-furan-2-ylmethyl-ureido)-propionamide] were 7.08 and 6.57.
The like results for `C=CC(=O)N[C@@H](CC(C)C)C(=O)Nc1ccc2ncnc(Nc3ccc(OCc4ccccn4)c(Cl)c3)c2c1` [Example 225, (2S)-2-acryloylamino-4-methyl-pentanoic acid {4-[3-chloro-4-(pyridin-2-ylmethoxy)-phenylamino]-quinazolin-6-yl}-amide] were, in that order, 7.68 and 7.38.
With `C=CC(=O)N(CC)[C@@H](C)C(=O)Nc1cc2c(Nc3ccc(OCc4ccccn4)c(Cl)c3)ncnc2cc1OC` [Example 202, N-((1S)-1-{4-[3-chloro-4-(pyridin-2-ylmethoxy)-phenylamino]-7-methoxy-quinazolin-6-ylcarbamoyl}-ethyl)-N-ethyl-acrylamide], the pIC50 in the test with SK-Br3 (ATCC: HTB-30) (Homo sapiens, SK-BR-3, 72 h) is 8.22; in the test on A431 (ATCC: CRL-1555) (Homo sapiens, A-431, 72 h), 6.98.
Regarding `O=C(C=CCN1CCOCC1)NCCC(=O)Nc1ccc2ncnc(Nc3ccc(OCc4cccc(F)c4)c(Cl)c3)c2c1` [Example 57, 4-morpholin-4-yl-but-2-enonylic acid (2-{4-[3-chloro-4-(3-fluoro-benzyloxy)-phenylamino]-quinazolin-6-ylcarbamoyl}-ethyl)-amide], the figures for the pIC50 in the test on SK-Br3 (ATCC: HTB-30) (setting [1]) and in the test on A431 (ATCC: CRL-1555) (setting [2]) were 7.37 and 6.20, respectively.
Turning to `C=CC(=O)N1CCC[C@H]1C(=O)Nc1ccc2ncnc(Nc3ccc(Oc4ccc(C)nc4)c(C)c3)c2c1` [Example 157, (2S)-1-acryloyl-pyrrolidine-2-carboxylic acid {4-[3-methyl-4-(6-methyl-pyridin-3-yloxy)-phenylamino]-quinazolin-6-yl}-amide], the pIC50 is 6.91 in the test with SK-Br3 (ATCC: HTB-30) (Homo sapiens, SK-BR-3, 72 h) and 5.25 in the test with A431 (ATCC: CRL-1555) (Homo sapiens, A-431, 72 h).
The like results for `C=CC(=O)NCCC(=O)Nc1cc2c(Nc3ccc(OCc4ccccn4)c(Cl)c3)ncnc2cc1F` [Example 192, N-(2-{4-[3-chloro-4-(pyridin-2-ylmethoxy)-phenylamino]-7-fluoro-quinazolin-6-ylcarbamoyl}-ethyl)-acrylamide] were, in that order, 8.22 and 7.44.
On to `C=CC(=O)N1CCCC1CC(=O)Nc1cc2c(Nc3ccc(OCc4ccccn4)c(Cl)c3)ncnc2cc1OC` (stereo not shown) [Example 169, 2-(1-acryloyl-pyrrolidin-2-yl)-N-{4-[3-chloro-4-(pyridin-2-ylmethoxy)-phenylamino]-7-methoxy-quinazolin-6-yl}-acetamide], for which the pIC50 is 7.62 in the test on SK-Br3 (ATCC: HTB-30) (Homo sapiens, SK-BR-3, 72 h) and 7.10 in the test on A431 (ATCC: CRL-1555) (Homo sapiens, A-431, 72 h).
Take `C=CC(=O)N1CCCCC1C(=O)Nc1ccc2ncnc(Nc3ccc(OCc4ccccn4)c(Cl)c3)c2c1` (stereo not shown) [Example 164, 1-acryloyl-piperidine-2-carboxylic acid {4-[3-chloro-4-(pyridin-2-ylmethoxy)-phenylamino]-quinazolin-6-yl}-amide]: the pIC50 in the test on SK-Br3 (ATCC: HTB-30) (Homo sapiens, SK-BR-3, 72 h) was 7.92; in the test with A431 (ATCC: CRL-1555) (setting [2]) it was 6.98.
`C=CC(=O)N1CCC[C@H]1C(=O)Nc1cc2c(Nc3ccc(OCc4cccnc4)c(Cl)c3)ncnc2cc1OCCCN1CCOCC1` [Example 209, (2S)-1-acryloyl-pyrrolidine-2-carboxylic acid {4-[3-chloro-4-(pyridin-3-ylmethoxy)-phenylamino]-7-(3-morpholin-4-yl-propoxy)-quinazolin-6-yl}-amide]: the pIC50 with SK-Br3 (ATCC: HTB-30) (Homo sapiens, SK-BR-3, 72 h) was 8.52; in the test with A431 (ATCC: CRL-1555) (Homo sapiens, A-431, 72 h), 7.36.
